Measurements taken from US20250304549A1, “HYDROXYAMIDE DERIVATIVE AND USE THEREOF” (SICHUAN HUIYU PHARMACEUTICAL CO., LTD., priority 2022, published 2025).
pIC50: −log10 of the molar value. Where a name gives a salt, the structure may show the parent alone.

Legend:
[1] = test system: NCI-H1417 cells; experiment: In vitro cell inhibition assay - H1417 cell proliferation (CellTiter-Glo); format: cell-based; settings: Homo sapiens, NCI-H1417, H1417 small cell lung cancer cell proliferation
Summary of the method: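 Cells exposed to 8 compound concentrations (5-fold dilutions) in BEGM with 10% FBS for 7 days at 37° C., 5% CO2. Viable cells measured by CellTiter-Glo luminescence; inhibition versus no-inhibitor and no-cell controls, IC50 fitted.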

[2] = target: pan-HDAC; experiment: In vitro enzyme inhibition assay - HDAC (HDAC-Glo I/II), pan-HDAC; format: biochemical
Summary of the method: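 Eight compound concentrations (5-fold steps from a 1 mM DMSO stock) tested against pan-HDAC, HDAC1 and HDAC8 with HDAC-Glo I/II reagents, luminescence read-out. Percent inhibition normalized to no-inhibitor and no-enzyme wells; IC50 derived by four-parameter logistic fit.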

[3] = target: HDAC8 (Homo sapiens (Human), UniProt Q9BY41); experiment: In vitro enzyme inhibition assay - HDAC (HDAC-Glo I/II), HDAC8; format: biochemical; settings: read-out: HDAC IC50 (nM) HDAC 8
Procedure: 2. In Vitro Enzyme Inhibition Assay—HDAC
The effect of the compound on the enzymatic activity of pan-HDAC and two isoforms (HDAC1 and HDAC8) was examined using the HDAC-Glo I/II Assay and Screening System assay to assess the level of inhibition of HDAC protease activity and selectivity in each isoform. The proteins and detection reagents were from the HDAC-Glo™ I/II Assay and Screening System (Promega). A 1 mM stock solution of the compound was prepared in DMSO and diluted in a 5-fold gradient to create a series of 8 concentrations, and a specific volume of the highest concentration was diluted 25 times with HDAC Buffer to obtain 4× working solution of the compound. […] The 384-well plate was then read on a multifunctional microplate reader, with the Luminescence channel selected to record Luminescence values (RLU). The inhibition rate was calculated using the following formula: […]
Note: ‘Negative’ refers to the group without the inhibitor; ‘Blank’ refers to the group without the enzyme.
The IC50 value was calculated by fitting the inhibition rate by GraphPad Prism software, employing log (inhibitor) vs. response-Variable Slope (four parameters) model.

[4] = target: LSD1 (Homo sapiens (Human), UniProt O60341); experiment: In vitro enzyme inhibition assay - LSD1 (HTRF); format: biochemical
[5] = test system: NCI-H69 cells; experiment: In vitro cell inhibition assay - NCI-H69 cell proliferation (CellTiter-Glo); format: cell-based; settings: Homo sapiens, NCI-H69, H69 small cell lung cancer cell proliferation
Summary of the method: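 Over 7 days at 37° C. and 5% CO2, cells grew in RPMI-640 supplemented with 20% FBS in the presence of eight 5-fold-spaced compound concentrations.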

Sequence of HDAC8 (Q9BY41 whole entry): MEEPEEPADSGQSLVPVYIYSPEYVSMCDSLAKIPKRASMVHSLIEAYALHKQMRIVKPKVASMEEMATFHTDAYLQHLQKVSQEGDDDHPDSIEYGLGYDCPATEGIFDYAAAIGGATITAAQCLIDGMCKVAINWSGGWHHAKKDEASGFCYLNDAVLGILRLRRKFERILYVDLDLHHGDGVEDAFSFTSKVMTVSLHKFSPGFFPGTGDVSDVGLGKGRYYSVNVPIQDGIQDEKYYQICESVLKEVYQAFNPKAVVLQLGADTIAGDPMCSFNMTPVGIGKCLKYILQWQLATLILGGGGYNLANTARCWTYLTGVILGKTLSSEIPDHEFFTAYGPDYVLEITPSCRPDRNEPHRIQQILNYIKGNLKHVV

pIC50 [1]	IC50 [2]	IC50 [3]	pIC50 [4]	pIC50 [5]	SMILES
8.21	5.49 nM	400 nM	9.13	7.18	CN(C)c1ccc(-c2cnc(N3CCC(NCc4ccc(/C=C/C(=O)NO)cc4)CC3)c(C#N)c2-c2ccc(C#N)c(F)c2)cc1O [Example 153, (E)-3-(4-(((1-(3-Cyano-4-(4-cyano-3-fluorophenyl)-5-(4-(dimethylamino)-3-hydroxyphenyl)pyridin-2-yl)piperidin-4-yl)amino)methyl)phenyl)-N-hydroxyacrylamide formate]
7.94	20 nM	23.7 nM	9.24	6.50	COc1ccc(-c2cnc(N3CCC(NCC4CC=C(/C=C/C(=O)NO)CC4)CC3)c(C#N)c2-c2ccc(C#N)c(F)c2)cc1O (centres unmarked) [Example 155, (E)-3-(4-(((1-(3-Cyano-4-(4-cyano-3-fluorophenyl)-5-(3-hydroxy-4-methoxyphenyl)pyridin-2-yl)piperidin-4-yl)amino)methyl)cyclohex-1-en-1-yl)-N-hydroxyacrylamide formate]
7.03	0.61 nM	87.8 nM	9.14	6.60	COc1cc(O)c(-c2cnc(N3CCC(NCc4ccc(/C=C/C(=O)NO)cc4)CC3)c(C#N)c2-c2ccc(C#N)c(F)c2)cc1O [Example 158, (E)-3-(4-(((1-(3-Cyano-4-(4-cyano-3-fluorophenyl)-5-(2,5-dihydroxy-4-methoxyphenyl)pyridin-2-yl)piperidin-4-yl)amino)methyl)phenyl)-N-hydroxyacrylamide trifluoroacetate]
8.25	1.48 nM	184 nM	8.95	7.09	COc1ccc(-c2cnc(N3CCC(NCc4ccc(/C=C/C(=O)NO)nn4)CC3)c(C#N)c2-c2ccc(C#N)c(F)c2)cc1O [Example 160, (E)-3-(6-(((1-(3-Cyano-4-(4-cyano-3-fluorophenyl)-5-(3-hydroxy-4-methoxyphenyl)pyridin-2-yl)piperidin-4-yl)amino)methyl)pyridazin-3-yl)-N-hydroxyacrylamide formate]
8.50	6.83 nM	304 nM	9.24	7.19	Cc1c(O)cc(-c2cnc(N3CCC(NCc4ccc(/C=C/C(=O)NO)cc4)CC3)c(C#N)c2-c2ccc(C#N)c(F)c2)cc1F [Example 161, (E)-3-(4-(((1-(3-Cyano-4-(4-cyano-3-fluorophenyl)-5-(3-fluoro-5-hydroxy-4-methylphenyl)pyridin-2-yl)piperidin-4-yl)amino)methyl)phenyl)-N-hydroxyacrylamide formate]
8.58	38.1 nM	332 nM	9.36	6.36	COc1ccc(-c2cnc(N3CCC(NCCOc4ccc(C(=O)NO)cc4)CC3)c(C#N)c2-c2ccc(C#N)c(F)c2)cc1O [Example 164, 4-(2-[(1-(3-Cyano-4-(4-cyano-3-fluorophenyl)-5-(3-hydroxy-4-methoxyphenyl)pyridin-2-yl)piperidin-4-yl)amino]ethoxy)-N-hydroxybenzamide formate]
7.94	7.31 nM	145 nM	8.87	6.94	COc1cc(OC)c(-c2cnc(N3CCC(NCc4ccc(/C=C/C(=O)NO)cc4)CC3)c(C#N)c2-c2ccc(C#N)c(F)c2)cc1O [Example 165, (E)-3-(4-(((1-(3-Cyano-4-(4-cyano-3-fluorophenyl)-5-(5-hydroxy-2,4-dimethoxyphenyl)pyridin-2-yl)piperidin-4-yl)amino)methyl)phenyl-N-hydroxyacrylamide hydrochloride]
7.21	2.27 nM	64 nM	7.82	6.68	COc1ccc(-c2cnc(N3CCC(NCc4ccc(/C=C/C(=O)NO)cc4)CC3)c(C#N)c2-c2ccc(C#N)c(O)c2)cc1O [Example 166, (E)-3-(4-(((1-(3-Cyano-4-(4-cyano-3-hydroxyphenyl)-5-(3-hydroxy-4-methoxyphenyl)pyridin-2-yl)piperidin-4-yl)amino)methyl)phenyl-N-hydroxyacrylamide hydrochloride]
8.28	7.35 nM	250 nM	8.87	7.18	COc1c(O)cc(-c2cnc(N3CCC(NCc4ccc(/C=C/C(=O)NO)cc4)CC3)c(C#N)c2-c2ccc(C#N)c(F)c2)cc1F [Example 168, (E)-3-(4-(((1-(3-Cyano-4-(4-cyano-3-fluorophenyl)-5-(3-fluoro-5-hydroxy-4-methoxyphenyl)pyridin-2-yl)piperidin-4-yl)amino)methyl)phenyl)-N-hydroxyacrylamide formate]
8.65	114 nM	252 nM	9.09	6.21	COc1ccc(-c2cnc(N3CCC(NCc4ccc5sc(C(=O)NO)cc5c4)CC3)c(C#N)c2-c2ccc(C#N)c(F)c2)cc1O [Example 173, 5-(((1-(3-Cyano-4-(4-cyano-3-fluorophenyl)-5-(3-hydroxy-4-methoxyphenyl)pyridin-2-yl)piperidin-4-yl)amino)methyl)-N-hydroxybenzo[b] thiophene-2-carboxamide formate]
8.38	588 nM	1710 nM	9.19	6.04	COc1ccc(-c2cnc(N3CCC(NCc4ccc(/C=C/C(=O)NO)o4)CC3)c(C#N)c2-c2ccc(C#N)c(F)c2)cc1O [Example 178, (E)-3-(5-(((1-(3-Cyano-4-(4-cyano-3-fluorophenyl)-5-(3-hydroxy-4-methoxyphenyl)pyridin-2-yl)piperidin-4-yl)amino)methyl)furan-2-yl)-N-hydroxyacrylamide formate]
8.44	23.4 nM	1240 nM	9.96	5.30	COc1ccc(-c2cnc(N3CCC(NCc4ccc(/C=C/C(=O)NO)c5[nH]ncc45)CC3)c(C#N)c2-c2ccc(C#N)c(F)c2)cc1O [Example 180, (E)-3-(4-(((1-(3-Cyano-4-(4-cyano-3-fluorophenyl)-5-(3-hydroxy-4-methoxyphenyl)pyridin-2-yl)piperidin-4-yl)amino)methyl)-1H-indazol-7-yl)-N-hydroxyacrylamide formate]
8.83	970 nM	3720 nM	10.05	6.13	COc1ccc(-c2cnc(N3CCC(NCc4ccc(OC(C)C(=O)NO)cc4)CC3)c(C#N)c2-c2ccc(C#N)c(F)c2)cc1O (centres unmarked) [Example 183, 2-(4-(((1-(3-Cyano-4-(4-cyano-3-fluorophenyl)-5-(3-hydroxy-4-methoxyphenyl)pyridin-2-yl)piperidin-4-yl)amino)methyl)phenoxy)-N-hydroxypropanamide formate]
8.21	60.1 nM	2160 nM	8.41	6.56	CC(C)(O)COc1ccc(-c2cnc(N3CCC(NCc4cnc(CCC(=O)NO)s4)CC3)c(C#N)c2-c2ccc(C#N)c(F)c2)cc1O [Example 185, 3-(5-((1-(3-Cyano-4-(4-cyano-3-fluorophenyl)-5-(3-hydroxy-4-(2-hydroxy-2-methylpropoxy)phenyl)pyridin-2-yl)piperidin-4-yl)amino)methyl)thiazol-2-yl)-N-hydroxypropanamide formate]
7.63	11.9 nM	50.9 nM	7.99	7.07	N#Cc1ccc(-c2c(-c3ccc(C(F)(F)F)c(O)c3)cnc(N3CCC(NCc4cnc(/C=C/C(=O)NO)nc4)CC3)c2C#N)cc1F [Example 186, (E)-3-(5-(((1-(3-Cyano-4-(4-cyano-3-fluorophenyl)-5-(3-hydroxy-4-(trifluoromethyl)phenyl)pyridin-2-yl)piperidin-4-yl)amino)methyl)pyrimidin-2-yl)-N-hydroxyacrylamide formate]
8.13	5.96 nM	336 nM	8.55	7.03	N#Cc1ccc(-c2c(-c3ccc(C(F)(F)F)c(O)c3)cnc(N3CCC(NCc4ccc(CCC(=O)NO)cc4)CC3)c2C#N)cc1F [Example 190, 3-(4-((1-(3-Cyano-4-(4-cyano-3-fluorophenyl)-5-(3-hydroxy-4-(trifluoromethyl)phenyl)pyridin-2-yl)piperidin-4-yl)amino)methyl) phenyl)-N-hydroxypropanamide formate]
